Peptide text beside a SMILES is read from it. * marks the point of attachment. X1 = O=C(CCCCCN1C(=O)CC(*)C1=O)NCCCC(O)(P(=O)(O)O)P(=O)(O)O; X2 = O=P(O)(O)SCCNCCCN*
Columns and labels:
CD2F1 male mice = assay: Pathological evaluation of irradiated mice injected with a single dose; assay type: in vivo; set-up: key to Pathological change grade: Spleen, Depletion, white pulp / Pathological change grade: Lung, Infiltrate, mixed cells / Pathological change grade: Lung, Fibrosis / Pathological change grade: Heart, Infiltrate, mixed cells / Pathological change grade: Heart, Mineralization / Pathological change grade: Duodenum / Pathological change grade: Jejunum / Pathological change grade: Ileum / Pathological change grade: Colon, Infiltrate, mixed cells / Pathological change grade: Kidney / Pathological change grade: Urinary bladder / Pathological change grade: Bone Marrow, Atrophy / Pathological change grade: Bone Marrow, Hemorrhage / Pathological change grade: Liver: 0=no change; 1=a minimal change, barely perceptible; 2=a mild change; 3 =a moderate change, affecting up to 50% of the tissue; 4=marked change, affecting up to 90% of the tissue; 5=severe or maximum change
Experimental: CD2F1 male mice (N=16) were subcutaneously (sc) injected with a single dose of one conjugate drug. For one protective drug conjugate (Conjugate 2), the tested doses were 250, 500, 600, and 700 mg/kg, and the irradiation was conducted at 24 h post-drug administration. The structure of Conjugate 2 included amifostine as the protective drug, alendronate as the bone-targeting ligand, and a protease-cleavable peptide having the sequence of CPLGLYAL (SEQ ID NO: 29) with acetylation at the N-terminus (e.g., AcCPLGLYAL; SEQ ID NO: 76). On day 30, surviving mice were humanely sacrificed and necropsied, eleven tissues of interest (liver, spleen, lung, heart, duodenum, jejunum, ileum, colon, kidney, urinary bladder, and sternum/bone marrow) were collected, preserved in fixative, and processed to glass slides. The completed preparations were stained with hematoxylin and eosin and examined microscopically. Pathological changes in the tissues were graded using a semi-quantitation scale of 0-5, where 0=no change, 1=a minimal change, barely perceptible; 2=a mild change; 3 =a moderate change, affecting up to 50% of the tissue; 4=marked change, affecting up to 90% of the tissue; and 5=severe or maximum change.

[1] = Conjugate cleavage in fresh bone marrow aspirate (HPLC); assay type: in vitro ADME; conditions: fresh bone marrow aspirate; human bone marrow aspirate, same donor, 37° C., up to 6 h; read-out: time to reach 50% conjugate cleavage (converted)
Experimental: The proteolytic cleavage of conjugates determines the therapeutic window, which is controlled by the specific peptide sequence. In a representative cleavage experiment, a […] stock solution of a conjugate (30 mg/mL) was mixed with 90 μL of fresh bone marrow aspirate, followed by incubation at 37° C. for up to 6 h. A 10 μL sample was taken every hour, diluted in 90 μL acetonitrile to precipitate proteins and extract conjugates and cleavage products. The concentrations of the conjugates in samples were determined by HPLC, normalized, and presented as the cleavage ratio.

[2] = 250 mg/kg sc, 24 h before 9.2 Gy, day 30, N = 11
[3] = 500 mg/kg sc, 24 h before 9.2 Gy, day 30, N = 12
[4] = 600 mg/kg sc, 24 h before 9.2 Gy, day 30, N = 15
[5] = 700 mg/kg sc, 24 h before 9.2 Gy, day 30, N = 16

CC(=O)N[C@@H](CSC1CC(=O)N(CCCCCC(=O)NCCCC(O)(P(=O)(O)O)P(=O)(O)O)C1=O)C(=O)N1CCC[C@H]1C(=O)N[C@@H](CC(C)C)C(=O)NCC(=O)N[C@@H](CC(C)C)C(=O)N[C@@H](Cc1ccc(O)cc1)C(=O)N[C@@H](C)C(=O)N[C@@H](CC(C)C)C(=O)NCCCNCCSP(=O)(O)O (stereo partly drawn) [Conjugate 2] (Ac-C(X1)PLGLYAL-X2)
Pathological change grade: Bone Marrow, Atrophy (CD2F1 male mice; [2]): 2-3 | Pathological change grade: Bone Marrow, Hemorrhage (CD2F1 male mice; [2]): 0-1 | Pathological change grade: Colon, Infiltrate, mixed cells (CD2F1 male mice; [2]): 1 | Pathological change grade: Duodenum (CD2F1 male mice; [2]): 0 | Pathological change grade: Heart, Infiltrate, mixed cells (CD2F1 male mice; [2]): 0 | Pathological change grade: Heart, Mineralization (CD2F1 male mice; [2]): 0 | Pathological change grade: Ileum (CD2F1 male mice; [2]): 0 | Pathological change grade: Jejunum (CD2F1 male mice; [2]): 0 | Pathological change grade: Kidney (CD2F1 male mice; [2]): 0 | Pathological change grade: Liver (CD2F1 male mice; [2]): 0 | Pathological change grade: Lung, Fibrosis (CD2F1 male mice; [2]): 0 | Pathological change grade: Lung, Infiltrate, mixed cells (CD2F1 male mice; [2]): 0 | Pathological change grade: Spleen, Depletion, white pulp (CD2F1 male mice; [2]): 2 | Pathological change grade: Urinary bladder (CD2F1 male mice; [2]): 0 | Pathological change grade: Bone Marrow, Atrophy (CD2F1 male mice; [3]): 2-3 | Pathological change grade: Bone Marrow, Hemorrhage (CD2F1 male mice; [3]): 0-1 | Pathological change grade: Colon, Infiltrate, mixed cells (CD2F1 male mice; [3]): 1 | Pathological change grade: Duodenum (CD2F1 male mice; [3]): 0 | Pathological change grade: Heart, Infiltrate, mixed cells (CD2F1 male mice; [3]): 0 | Pathological change grade: Heart, Mineralization (CD2F1 male mice; [3]): 0 | Pathological change grade: Ileum (CD2F1 male mice; [3]): 0 | Pathological change grade: Jejunum (CD2F1 male mice; [3]): 0 | Pathological change grade: Kidney (CD2F1 male mice; [3]): 0 | Pathological change grade: Liver (CD2F1 male mice; [3]): 0 | Pathological change grade: Lung, Fibrosis (CD2F1 male mice; [3]): 0 | Pathological change grade: Lung, Infiltrate, mixed cells (CD2F1 male mice; [3]): 0 | Pathological change grade: Spleen, Depletion, white pulp (CD2F1 male mice; [3]): 1-2 | Pathological change grade: Urinary bladder (CD2F1 male mice; [3]): 0 | Pathological change grade: Bone Marrow, Atrophy (CD2F1 male mice; [4]): 2-3 | Pathological change grade: Bone Marrow, Hemorrhage (CD2F1 male mice; [4]): 0-1 | Pathological change grade: Colon, Infiltrate, mixed cells (CD2F1 male mice; [4]): 0-1 | Pathological change grade: Duodenum (CD2F1 male mice; [4]): 0 | Pathological change grade: Heart, Infiltrate, mixed cells (CD2F1 male mice; [4]): 0 | Pathological change grade: Heart, Mineralization (CD2F1 male mice; [4]): 0 | Pathological change grade: Ileum (CD2F1 male mice; [4]): 0 | Pathological change grade: Jejunum (CD2F1 male mice; [4]): 0 | Pathological change grade: Kidney (CD2F1 male mice; [4]): 0 | Pathological change grade: Liver (CD2F1 male mice; [4]): 0 | Pathological change grade: Lung, Fibrosis (CD2F1 male mice; [4]): 0 | Pathological change grade: Lung, Infiltrate, mixed cells (CD2F1 male mice; [4]): 0 | Pathological change grade: Spleen, Depletion, white pulp (CD2F1 male mice; [4]): 1-2 | Pathological change grade: Urinary bladder (CD2F1 male mice; [4]): 0 | sternal bone marrow histology compared to Vehicle Group (CD2F1 male mice; 700 mg/kg 24 h before 9.2 Gy, day 30 (FIG. 11B)): much denser marrow | white pulp of the spleen, histology (CD2F1 male mice; 700 mg/kg 24 h before 9.2 Gy, day 30 (FIG. 11D)): essentially normal | Pathological change grade: Bone Marrow, Atrophy (CD2F1 male mice; [5]): 2 | Pathological change grade: Bone Marrow, Hemorrhage (CD2F1 male mice; [5]): 0 | Pathological change grade: Colon, Infiltrate, mixed cells (CD2F1 male mice; [5]): 0-1 | Pathological change grade: Duodenum (CD2F1 male mice; [5]): 0 | Pathological change grade: Heart, Infiltrate, mixed cells (CD2F1 male mice; [5]): 0 | Pathological change grade: Heart, Mineralization (CD2F1 male mice; [5]): 0 | Pathological change grade: Ileum (CD2F1 male mice; [5]): 0 | Pathological change grade: Jejunum (CD2F1 male mice; [5]): 0 | Pathological change grade: Kidney (CD2F1 male mice; [5]): 0 | Pathological change grade: Liver (CD2F1 male mice; [5]): 0 | Pathological change grade: Lung, Fibrosis (CD2F1 male mice; [5]): 0 | Pathological change grade: Lung, Infiltrate, mixed cells (CD2F1 male mice; [5]): 0 | Pathological change grade: Spleen, Depletion, white pulp (CD2F1 male mice; [5]): 1-2 | Pathological change grade: Urinary bladder (CD2F1 male mice; [5]): 0 | protective effects on tissue pathology, especially bone marrow (CD2F1 male mice; 250, 500, 600, 700 mg/kg, 24 h before 9.2 Gy): significant dose-depending protective effects | half-life at 3 mg/mL [1]: 252 min

— US20250127799A1, “DRUG CONJUGATES FOR BONE MARROW PROTECTION” (priority 2023, published 2025)
